One data set has as its system rats. The following applies: experiments of GB 1 468 998; cited from earlier work.
The test system of data set [1] is chickens raised for market. In words: Feed for chickens raised for market (feed additive trial). The following applies: 0.2 wt.-% added to air-dried food. Also on record: dose or concentration left out as unconfirmed. The class given is in vivo. The procedure:
2. Animal Feed Additive • 2.1 A formulation consisting of 5,000 mg creatinol-O -phosphate and 5,000 mg inulin was added to a typical formula for feed pellets as a food supplement for horses. • 2.2 A formulation consisting of 7,000 mg creatinol sulfate, 750 mg carnitine tartrate, 100 mg sucrose stearate, 160 mg talc, and 1,090 mg fructose was added to the base mixture for making dog biscuits. • 2.3 As a master batch, the following formulation was added to a regular commercial canned cat food mixture: 3,000 mg creatinol sulfate, 3,000 mg creatine, 40 mg magnesium stearate, 25 mg carboxymethylcellulose and 135 mg lactose. • 2.4 Feed for chickens raised for market
In addition the feed consumption was about 2 to 3% less than in former feeding methods.

For data set [2] the following is noted: after administration; Arzneimittelforschung 1979, 29 (9A) 1477-79; cited from earlier work.

The text below walks through data of US7867948B2, “Use of guanidine compounds as physiological strengthening agents in the form of nutritional supplements, animal feed additives, in cosmetic preparations and as plant stimulants” (Alzchem Trostberg GmbH, priority 2004, dated 2011).

Each structure is given as a SMILES string.

As to `CN(CCO)C(=N)N.NC(CC(=O)O)C(=O)O` (stereo not shown) [creatinol aspartate], the swimming activity increased with rats is recorded as 30%.
Consider `CN(CCOP(=O)(O)O)C(=N)N` [creatinol-O-phosphate], for which the meat quality result in data set [1] (41 days feeding time) is “improved quality”. For the same compound, the “increase in the final weight versus former feeding methods without addition of creatinol” value in data set [1] (after 41 days feeding time) was 4%. For the same compound, the “creatinine levels in the urine” value in data set [2] is “increase”.
